Reference: the supplement of paper PMC6045584
± gives the standard deviation of the averaged measurements.

Assays:
[1] = compound: O=C(NOCC1CC1)c1ccc(F)c(F)c1Nc1ccc(I)cc1Cl; assay: surviving fraction relative to DMSO-only wells; higher = less growth inhibition; details: exposure time: 5 days
Method in brief: (§1)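 After seeding at 250–500 cells per well in 384-well plates and a 24-hour wait, log-phase tumour cell lines were exposed without interruption for five days to inhibitors at 0.5, 1, 5, 10, 50, 100, 500 and 1000 nM. CellTiter-Glo luminescence was recorded after 10 minutes at room temperature. Viability is reported as surviving fraction, the luminescence normalised to the median of DMSO-only wells.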

[2] = compound: Cc1nc(Nc2n[nH]c3c2CN(C(=O)N[C@H](CN(C)C)c2ccccc2)C3(C)C)c2sccc2n1; assay: as above; details: exposure time: 5 days
Method in brief: as §1

Test System | surviving fraction ([1]; 0.5 nM) | surviving fraction ([1]; 1 nM) | surviving fraction ([1]; 5 nM) | surviving fraction ([1]; 10 nM) | surviving fraction ([1]; 50 nM) | surviving fraction ([1]; 100 nM) | surviving fraction ([1]; 500 nM) | surviving fraction ([1]; 1000 nM) | surviving fraction ([2]; 0.5 nM) | surviving fraction ([2]; 1 nM) | surviving fraction ([2]; 5 nM) | surviving fraction ([2]; 10 nM) | surviving fraction ([2]; 50 nM) | surviving fraction ([2]; 100 nM) | surviving fraction ([2]; 500 nM) | surviving fraction ([2]; 1000 nM)
22RV1 PROSTATE | 0.93 ± 0.034 | 1.03 ± 0.044 | 0.917 ± 0.04 | 0.851 ± 0.038 | 0.714 ± 0.068 | 0.6767 ± 0.0032 | 0.631 ± 0.037 | 0.526 ± 0.019 | 0.963 ± 0.14 | 0.783 ± 0.078 | 0.334 ± 0.035 | 0.321 ± 0.051 | 0.348 ± 0.018 | 0.313 ± 0.058 | 0.291 ± 0.058 | 0.27 ± 0.025
93VU HEADNECK | 0.859 ± 0.026 | 0.873 ± 0.089 | 0.979 ± 0.061 | 0.828 ± 0.051 | 0.785 ± 0.074 | 0.751 ± 0.037 | 0.417 ± 0.036 | 0.311 ± 0.097 | 1.01 ± 0.12 | 0.883 ± 0.045 | 0.39 ± 0.012 | 0.298 ± 0.044 | 0.24 ± 0.018 | 0.195 ± 0.0078 | 0.0973 ± 0.013 | 0.0723 ± 0.0095
143B BONE | 0.887 ± 0.14 | 0.98 ± 0.0057 | 0.97 ± 0.018 | 1 ± 0.037 | 0.857 ± 0.13 | 0.957 ± 0.037 | 0.841 ± 0.028 | 0.542 ± 0.021 | 0.96 ± 0.021 | 0.969 ± 0.015 | 0.726 ± 0.032 | 0.494 ± 0.011 | 0.293 ± 0.033 | 0.259 ± 0.016 | 0.158 ± 0.0042 | 0.0825 ± 0.0035
A549 LUNG | 0.931 ± 0.014 | 0.95667 ± 0.00058 | 0.947 ± 0.017 | 0.956 ± 0.019 | 0.964 ± 0.027 | 1.01 ± 0.02 | 0.93 ± 0.013 | 0.886 ± 0.015 | 1.03 ± 0.051 | 0.952 ± 0.064 | 0.988 ± 0.064 | 0.578 ± 0.021 | 0.38 ± 0.033 | 0.311 ± 0.022 | 0.2537 ± 0.0015 | 0.208 ± 0.011
ASKA SYNOVIAL | 0.658 ± 0.015 | 1.08 ± 0.052 | 1.08 ± 0.049 | 1.14 ± 0.035 | 0.847 ± 0.019 | 1.11 ± 0.073 | 0.973 ± 0.034 | 0.903 ± 0.029 | 0.673 ± 0.043 | 1.09 ± 0.022 | 0.4283 ± 0.0031 | 1.16 ± 0.16 | 0.43 ± 0.027 | 1.28 ± 0.018 | 0.3113 ± 0.0015 | 1.08 ± 0.051
BT20 BREAST | 0.994 ± 0.099 | 1.06 ± 0.055 | 1.03 ± 0.091 | 0.962 ± 0.13 | 0.905 ± 0.12 | 0.928 ± 0.055 | 0.864 ± 0.061 | 0.849 ± 0.069 | 1.21 ± 0.12 | 1.11 ± 0.056 | 1.34 ± 0.025 | 1.28 ± 0.013 | 0.841 ± 0.11 | 0.631 ± 0.12 | 0.614 ± 0.076 | 0.542 ± 0.062
BT549 BREAST | 1.03 ± 0.11 | 1.07 ± 0.088 | 1.08 ± 0.23 | 1.14 ± 0.03 | 1.15 ± 0.062 | 1.21 ± 0.044 | 1.3 ± 0.067 | 1.23 ± 0.16 | 1.02 ± 0.065 | 0.928 ± 0.064 | 0.299 ± 0.035 | 0.232 ± 0.034 | 0.0943 ± 0.0086 | 0.092 ± 0.019 | 0.0593 ± 0.012 | 0.052 ± 0.02
CADOES1 SOFT TISSUE | 0.913 ± 0.11 | 0.844 ± 0.075 | 0.894 ± 0.15 | 0.86 ± 0.081 | 0.903 ± 0.061 | 0.918 ± 0.1 | 0.875 ± 0.14 | 0.746 ± 0.14 | 0.919 ± 0.029 | 0.865 ± 0.035 | 0.953 ± 0.11 | 0.957 ± 0.14 | 0.764 ± 0.047 | 0.721 ± 0.093 | 0.401 ± 0.014 | 0.291 ± 0.026
CAL51 BREAST | 0.975 ± 0.021 | 1 ± 0.032 | 0.981 ± 0.055 | 0.993 ± 0.017 | 0.934 ± 0.058 | 0.944 ± 0.042 | 0.878 ± 0.032 | 0.8495 ± 0.0082 | 0.898 ± 0.011 | 0.765 ± 0.047 | 0.281 ± 0.017 | 0.181 ± 0.0083 | 0.0752 ± 0.002 | 0.0562 ± 0.0013 | 0.0417 ± 0.0018 | 0.0317 ± 0.0014
CAL120 BREAST | 0.928 ± 0.018 | 0.9302 ± 0.008 | 0.966 ± 0.025 | 0.908 ± 0.015 | 0.899 ± 0.036 | 0.898 ± 0.015 | 0.8322 ± 0.0043 | 0.805 ± 0.01 | 0.904 ± 0.0095 | 0.599 ± 0.021 | 0.364 ± 0.019 | 0.287 ± 0.0047 | 0.242 ± 0.03 | 0.223 ± 0.0029 | 0.24 ± 0.028 | 0.151 ± 0.018
CASKI CERVIX | 0.931 ± 0.018 | 0.944 ± 0.038 | 0.95 ± 0.051 | 0.881 ± 0.032 | 0.766 ± 0.022 | 0.685 ± 0.045 | 0.474 ± 0.013 | 0.454 ± 0.02 | 0.713 ± 0.037 | 0.472 ± 0.0095 | 0.237 ± 0.0071 | 0.193 ± 0.0081 | 0.13 ± 0.013 | 0.0993 ± 0.012 | 0.0227 ± 0.0031 | 0.0183 ± 0.00058
CHLA90 AUTONOMIC GANGLIA | 0.469 ± 0.022 | 0.987 ± 0.003 | 0.825 ± 0.05 | 0.894 ± 0.036 | 0.478 ± 0.044 | 0.763 ± 0.028 | 0.662 ± 0.044 | 0.69 ± 0.015 | 0.916 ± 0.055 | 0.826 ± 0.037 | 0.58 ± 0.045 | 0.477 ± 0.018 | 0.38 ± 0.036 | 0.331 ± 0.0082 | 0.233 ± 0.018 | 0.2 ± 0.011
CME SYNOVIAL | 0.301 ± 0.075 | 1.11 ± 0.064 | 1.04 ± 0.15 | 1.27 ± 0.12 | 0.584 ± 0.07 | 1.22 ± 0.17 | 0.993 ± 0.16 | 1.02 ± 0.27 | 0.982 ± 0.12 | 1.32 ± 0.047 | 0.564 ± 0.077 | 1.42 ± 0.17 | 0.287 ± 0.018 | 1.34 ± 0.057 | 0.325 ± 0.025 | 1.31 ± 0.06
COLO320DM LARGE INTESTINE | 0.544 ± 0.018 | 1.09 ± 0.032 | 0.98 ± 0.094 | 1.09 ± 0.094 | 0.747 ± 0.053 | 1.15 ± 0.029 | 1.11 ± 0.063 | 1.15 ± 0.043 | 1.1 ± 0.089 | 1.04 ± 0.041 | 1.11 ± 0.035 | 1.1 ± 0.072 | 0.793 ± 0.055 | 0.745 ± 0.019 | 0.333 ± 0.011 | 0.388 ± 0.015
DU4475 BREAST | 0.859 ± 0.24 | 0.791 ± 0.12 | 0.794 ± 0.29 | 0.674 ± 0.064 | 0.49 ± 0.15 | 0.199 ± 0.11 | 0.0277 ± 0.0074 | 0.0263 ± 0.0078 | 0.654 ± 0.12 | 0.452 ± 0.065 | 0.138 ± 0.048 | 0.0743 ± 0.013 | 0.038 ± 0.0095 | 0.029 ± 0.0056 | 0.0257 ± 0.0045 | 0.0277 ± 0.006
H23 LUNG | 0.922 ± 0.025 | 0.931 ± 0.027 | 0.834 ± 0.0027 | 0.741 ± 0.062 | 0.484 ± 0.029 | 0.413 ± 0.01 | 0.341 ± 0.0071 | 0.342 ± 0.0067 | 0.989 ± 0.029 | 0.929 ± 0.051 | 0.578 ± 0.032 | 0.35 ± 0.025 | 0.26 ± 0.0067 | 0.23 ± 0.013 | 0.216 ± 0.0089 | 0.206 ± 0.023
HCC38 BREAST | 1.14 ± 0.17 | 1.11 ± 0.19 | 1.01 ± 0.11 | 1.14 ± 0.093 | 0.998 ± 0.2 | 1.03 ± 0.22 | 1.21 ± 0.29 | 1.07 ± 0.14 | 1.03 ± 0.25 | 0.943 ± 0.17 | 0.291 ± 0.038 | 0.255 ± 0.029 | 0.182 ± 0.02 | 0.186 ± 0.034 | 0.178 ± 0.034 | 0.0973 ± 0.011
HCC70 BREAST | 0.939 ± 0.029 | 0.963 ± 0.03 | 1.02 ± 0.049 | 0.956 ± 0.058 | 0.818 ± 0.041 | 0.773 ± 0.052 | 0.601 ± 0.022 | 0.528 ± 0.033 | 0.996 ± 0.059 | 0.895 ± 0.096 | 0.275 ± 0.035 | 0.089 ± 0.014 | 0.0497 ± 0.0061 | 0.038 ± 0.003 | 0.032 ± 0.0089 | 0.0307 ± 0.0061
HCC78 LUNG | 0.787 ± 0.12 | 0.836 ± 0.085 | 0.841 ± 0.11 | 0.832 ± 0.25 | 0.898 ± 0.17 | 0.885 ± 0.15 | 0.486 ± 0.058 | 0.632 ± 0.097 | 0.721 ± 0.087 | 0.967 ± 0.1 | 0.323 ± 0.047 | 0.454 ± 0.14 | 0.263 ± 0.027 | 0.231 ± 0.03 | 0.203 ± 0.036 | 0.21 ± 0.041
HCC202 BREAST | 1.38 ± 0.41 | 1.49 ± 0.64 | 1.47 ± 0.2 | 1.28 ± 0.26 | 1.46 ± 0.16 | 1.31 ± 0.099 | 1.37 ± 0.38 | 1.57 ± 0.043 | 1.27 ± 0.26 | 1.12 ± 0.07 | 0.855 ± 0.24 | 0.754 ± 0.042 | 0.58 ± 0.028 | 0.501 ± 0.12 | 0.226 ± 0.038 | 0.14 ± 0.049
